The record followed here is ChEMBL document CHEMBL1201862, “PubChem BioAssay data set” (2004).

Each structure is given as a SMILES string. Calls of active or inactive are those of the source.

Format in all cases: functional
Assay [1] has as its target Insulin-like growth factor 1 receptor (Homo sapiens, UniProt P08069). Kind of assay: Navigating the Kinome. Panel member name: IGF1R.
The next assay concerns the target T1, Aurora kinase A (Homo sapiens, UniProt O14965).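 Also: value from the Navigating the Kinome kinase panel profiling, panel entry STK6.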
T1 sequence (O14965 whole entry): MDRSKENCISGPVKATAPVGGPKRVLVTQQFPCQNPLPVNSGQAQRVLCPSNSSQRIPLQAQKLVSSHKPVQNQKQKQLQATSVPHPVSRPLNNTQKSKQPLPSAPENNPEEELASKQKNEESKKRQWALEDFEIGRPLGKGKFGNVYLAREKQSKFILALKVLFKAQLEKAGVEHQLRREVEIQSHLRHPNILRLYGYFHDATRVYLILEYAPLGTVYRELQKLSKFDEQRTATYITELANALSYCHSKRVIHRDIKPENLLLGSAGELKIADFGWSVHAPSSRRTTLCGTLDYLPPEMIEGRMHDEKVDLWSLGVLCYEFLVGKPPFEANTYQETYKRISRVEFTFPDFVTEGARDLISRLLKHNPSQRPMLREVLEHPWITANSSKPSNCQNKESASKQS

Assay [2] concerns the target Rho-associated protein kinase 1 (Homo sapiens, UniProt Q13464).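 Also: measured within a broad kinome-wide panel profiling many kinases.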
In assay [3] the target is T2, Serine/threonine-protein kinase TAO1 (Homo sapiens, UniProt Q7L7X3).
T2 sequence (Q7L7X3 whole entry): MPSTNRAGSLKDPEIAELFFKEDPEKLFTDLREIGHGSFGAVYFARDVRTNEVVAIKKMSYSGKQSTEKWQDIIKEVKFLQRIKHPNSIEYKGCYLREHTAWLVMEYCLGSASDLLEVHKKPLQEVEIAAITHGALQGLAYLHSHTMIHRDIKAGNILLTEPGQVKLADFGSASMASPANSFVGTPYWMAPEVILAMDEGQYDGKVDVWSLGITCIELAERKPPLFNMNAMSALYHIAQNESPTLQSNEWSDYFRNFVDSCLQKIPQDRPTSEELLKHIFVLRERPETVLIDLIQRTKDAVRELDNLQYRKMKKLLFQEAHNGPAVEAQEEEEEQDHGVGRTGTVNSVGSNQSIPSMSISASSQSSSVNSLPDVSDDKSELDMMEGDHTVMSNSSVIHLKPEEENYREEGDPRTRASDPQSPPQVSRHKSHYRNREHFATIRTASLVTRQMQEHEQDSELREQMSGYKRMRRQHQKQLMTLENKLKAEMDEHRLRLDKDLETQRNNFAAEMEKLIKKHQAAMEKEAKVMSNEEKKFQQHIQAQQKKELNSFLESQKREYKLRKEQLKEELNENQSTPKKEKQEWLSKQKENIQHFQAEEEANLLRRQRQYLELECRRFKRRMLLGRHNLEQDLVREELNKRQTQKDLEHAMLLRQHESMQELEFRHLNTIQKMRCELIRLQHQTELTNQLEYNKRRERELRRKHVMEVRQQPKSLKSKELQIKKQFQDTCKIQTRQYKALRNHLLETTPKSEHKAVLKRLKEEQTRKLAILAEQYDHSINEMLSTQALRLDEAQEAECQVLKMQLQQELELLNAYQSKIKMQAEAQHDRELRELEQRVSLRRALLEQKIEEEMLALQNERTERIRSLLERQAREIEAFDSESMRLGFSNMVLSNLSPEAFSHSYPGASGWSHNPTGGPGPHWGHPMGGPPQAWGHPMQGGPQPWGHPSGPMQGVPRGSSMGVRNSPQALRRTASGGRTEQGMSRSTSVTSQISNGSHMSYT

The target of assay [4] is Leukocyte tyrosine kinase receptor (Homo sapiens, UniProt P29376). Kind of assay: Navigating the Kinome. Panel member name: LTK.
In assay [5] the target is Dual specificity tyrosine-phosphorylation-regulated kinase 1B (Homo sapiens, UniProt Q9Y463). Kind of assay: Navigating the Kinome. Panel member name: DYRK1B.
Assay [6] concerns the target T3, Tyrosine-protein kinase JAK3 (Homo sapiens, UniProt P52333).
T3 sequence (P52333 whole entry): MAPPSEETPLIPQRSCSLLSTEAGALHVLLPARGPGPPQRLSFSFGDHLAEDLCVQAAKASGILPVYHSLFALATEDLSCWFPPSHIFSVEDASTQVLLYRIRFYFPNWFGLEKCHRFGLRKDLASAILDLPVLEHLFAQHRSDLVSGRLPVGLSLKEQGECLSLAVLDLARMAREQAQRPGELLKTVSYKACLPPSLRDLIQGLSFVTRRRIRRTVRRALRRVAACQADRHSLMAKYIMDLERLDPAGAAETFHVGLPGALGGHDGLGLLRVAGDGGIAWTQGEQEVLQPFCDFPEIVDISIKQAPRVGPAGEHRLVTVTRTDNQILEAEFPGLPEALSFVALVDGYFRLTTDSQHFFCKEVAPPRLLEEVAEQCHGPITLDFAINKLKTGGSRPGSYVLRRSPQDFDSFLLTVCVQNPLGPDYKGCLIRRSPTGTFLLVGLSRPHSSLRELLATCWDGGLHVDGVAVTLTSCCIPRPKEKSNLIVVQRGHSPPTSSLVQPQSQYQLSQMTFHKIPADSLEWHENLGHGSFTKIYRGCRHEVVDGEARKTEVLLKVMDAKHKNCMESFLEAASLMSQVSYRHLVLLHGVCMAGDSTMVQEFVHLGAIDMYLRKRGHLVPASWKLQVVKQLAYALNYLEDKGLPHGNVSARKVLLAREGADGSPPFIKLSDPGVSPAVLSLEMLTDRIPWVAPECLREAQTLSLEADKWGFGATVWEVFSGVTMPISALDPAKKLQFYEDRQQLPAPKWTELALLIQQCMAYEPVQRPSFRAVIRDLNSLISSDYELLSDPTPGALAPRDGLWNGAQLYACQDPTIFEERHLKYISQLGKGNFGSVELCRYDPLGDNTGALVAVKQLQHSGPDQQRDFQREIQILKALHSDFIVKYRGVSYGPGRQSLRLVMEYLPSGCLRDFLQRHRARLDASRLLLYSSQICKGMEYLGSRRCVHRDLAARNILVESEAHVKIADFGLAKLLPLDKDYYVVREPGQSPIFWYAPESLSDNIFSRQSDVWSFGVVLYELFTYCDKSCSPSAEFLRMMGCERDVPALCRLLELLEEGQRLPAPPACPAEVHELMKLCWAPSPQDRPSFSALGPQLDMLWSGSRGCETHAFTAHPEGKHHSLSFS

For assay [7], the target named is Dual specificity tyrosine-phosphorylation-regulated kinase 1A (Homo sapiens, UniProt Q13627).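 Also: measured against DYRK1A as one member of a broad kinome profiling panel.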
The next assay deals with Activated CDC42 kinase 1 (Homo sapiens, UniProt Q07912). Kind of assay: Navigating the Kinome. Panel member name: ACK1.
The target of assay [8] is cAMP-dependent protein kinase catalytic subunit alpha (Homo sapiens, UniProt P17612).
Assay [9] has as its target Mitogen-activated protein kinase 8 (Homo sapiens, UniProt P45983).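 Also: value comes from one member of a kinome-wide kinase profiling panel.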

Mitogen-activated protein kinase 8, sequence (P45983 whole entry): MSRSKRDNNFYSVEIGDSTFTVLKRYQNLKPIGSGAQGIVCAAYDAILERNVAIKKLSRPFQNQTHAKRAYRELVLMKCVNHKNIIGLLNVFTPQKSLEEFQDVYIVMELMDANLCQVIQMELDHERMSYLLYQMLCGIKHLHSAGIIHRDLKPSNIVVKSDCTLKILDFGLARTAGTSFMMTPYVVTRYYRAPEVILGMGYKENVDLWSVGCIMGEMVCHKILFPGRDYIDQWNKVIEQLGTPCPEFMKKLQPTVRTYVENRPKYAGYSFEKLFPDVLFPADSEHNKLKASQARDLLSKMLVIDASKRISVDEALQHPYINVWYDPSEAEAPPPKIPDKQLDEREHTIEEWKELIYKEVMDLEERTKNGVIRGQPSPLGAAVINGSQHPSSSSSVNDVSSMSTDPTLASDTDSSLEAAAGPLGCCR
Leukocyte tyrosine kinase receptor, sequence (P29376 whole entry): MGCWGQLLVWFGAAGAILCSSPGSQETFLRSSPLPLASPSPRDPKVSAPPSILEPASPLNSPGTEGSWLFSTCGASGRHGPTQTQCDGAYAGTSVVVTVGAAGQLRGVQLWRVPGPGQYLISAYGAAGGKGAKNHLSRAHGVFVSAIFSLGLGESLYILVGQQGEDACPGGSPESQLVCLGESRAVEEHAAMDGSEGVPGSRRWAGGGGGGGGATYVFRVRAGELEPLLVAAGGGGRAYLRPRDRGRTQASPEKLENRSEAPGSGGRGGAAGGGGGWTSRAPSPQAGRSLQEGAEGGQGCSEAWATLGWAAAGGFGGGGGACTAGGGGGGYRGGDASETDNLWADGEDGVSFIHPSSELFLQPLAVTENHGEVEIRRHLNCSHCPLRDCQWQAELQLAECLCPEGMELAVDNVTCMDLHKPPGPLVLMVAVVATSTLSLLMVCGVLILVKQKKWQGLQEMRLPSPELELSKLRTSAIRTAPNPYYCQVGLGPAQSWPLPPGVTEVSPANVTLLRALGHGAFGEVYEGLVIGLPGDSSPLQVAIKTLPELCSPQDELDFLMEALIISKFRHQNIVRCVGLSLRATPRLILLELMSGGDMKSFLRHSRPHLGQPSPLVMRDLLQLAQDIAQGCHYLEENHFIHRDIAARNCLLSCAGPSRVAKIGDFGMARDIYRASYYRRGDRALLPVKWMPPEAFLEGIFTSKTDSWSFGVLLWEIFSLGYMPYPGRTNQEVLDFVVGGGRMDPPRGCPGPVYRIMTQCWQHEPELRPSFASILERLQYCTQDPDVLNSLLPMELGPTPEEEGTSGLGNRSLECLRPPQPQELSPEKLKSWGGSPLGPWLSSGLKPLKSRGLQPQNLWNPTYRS
Rho-associated protein kinase 1, sequence (Q13464 whole entry): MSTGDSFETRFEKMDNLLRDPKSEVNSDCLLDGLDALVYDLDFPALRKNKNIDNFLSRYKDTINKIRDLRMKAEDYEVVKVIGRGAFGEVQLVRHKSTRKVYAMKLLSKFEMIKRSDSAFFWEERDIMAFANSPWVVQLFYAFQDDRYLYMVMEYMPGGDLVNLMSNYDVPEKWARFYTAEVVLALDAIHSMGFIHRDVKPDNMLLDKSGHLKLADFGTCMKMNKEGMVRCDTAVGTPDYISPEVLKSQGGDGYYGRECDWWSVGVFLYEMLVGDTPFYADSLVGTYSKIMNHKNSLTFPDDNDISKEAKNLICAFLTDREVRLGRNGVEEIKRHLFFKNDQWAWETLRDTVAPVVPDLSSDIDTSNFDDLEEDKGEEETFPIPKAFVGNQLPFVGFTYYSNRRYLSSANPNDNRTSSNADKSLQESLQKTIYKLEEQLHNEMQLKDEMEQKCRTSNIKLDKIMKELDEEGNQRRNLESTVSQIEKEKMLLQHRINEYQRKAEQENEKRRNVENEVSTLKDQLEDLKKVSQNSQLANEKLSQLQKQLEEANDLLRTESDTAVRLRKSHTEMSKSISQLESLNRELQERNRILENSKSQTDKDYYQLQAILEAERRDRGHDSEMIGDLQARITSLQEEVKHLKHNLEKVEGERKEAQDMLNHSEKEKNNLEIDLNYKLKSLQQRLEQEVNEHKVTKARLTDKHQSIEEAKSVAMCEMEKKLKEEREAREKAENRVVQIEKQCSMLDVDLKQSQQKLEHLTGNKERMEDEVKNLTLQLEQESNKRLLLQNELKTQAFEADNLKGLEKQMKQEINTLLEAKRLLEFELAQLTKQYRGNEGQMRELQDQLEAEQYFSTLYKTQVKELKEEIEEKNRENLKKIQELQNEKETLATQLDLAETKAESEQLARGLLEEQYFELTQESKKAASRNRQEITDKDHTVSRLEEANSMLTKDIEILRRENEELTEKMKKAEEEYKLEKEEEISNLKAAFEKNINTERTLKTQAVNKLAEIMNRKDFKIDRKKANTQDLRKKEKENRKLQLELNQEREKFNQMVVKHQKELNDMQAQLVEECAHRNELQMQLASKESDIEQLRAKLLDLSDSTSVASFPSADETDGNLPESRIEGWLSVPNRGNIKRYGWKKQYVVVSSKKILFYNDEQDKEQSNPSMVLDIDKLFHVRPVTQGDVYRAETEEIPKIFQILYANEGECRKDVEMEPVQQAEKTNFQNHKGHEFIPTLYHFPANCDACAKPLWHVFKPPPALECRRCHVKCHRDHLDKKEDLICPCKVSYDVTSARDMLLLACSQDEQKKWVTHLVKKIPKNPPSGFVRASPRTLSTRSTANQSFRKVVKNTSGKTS
Insulin-like growth factor 1 receptor, sequence (P08069 31-736 limits assumed): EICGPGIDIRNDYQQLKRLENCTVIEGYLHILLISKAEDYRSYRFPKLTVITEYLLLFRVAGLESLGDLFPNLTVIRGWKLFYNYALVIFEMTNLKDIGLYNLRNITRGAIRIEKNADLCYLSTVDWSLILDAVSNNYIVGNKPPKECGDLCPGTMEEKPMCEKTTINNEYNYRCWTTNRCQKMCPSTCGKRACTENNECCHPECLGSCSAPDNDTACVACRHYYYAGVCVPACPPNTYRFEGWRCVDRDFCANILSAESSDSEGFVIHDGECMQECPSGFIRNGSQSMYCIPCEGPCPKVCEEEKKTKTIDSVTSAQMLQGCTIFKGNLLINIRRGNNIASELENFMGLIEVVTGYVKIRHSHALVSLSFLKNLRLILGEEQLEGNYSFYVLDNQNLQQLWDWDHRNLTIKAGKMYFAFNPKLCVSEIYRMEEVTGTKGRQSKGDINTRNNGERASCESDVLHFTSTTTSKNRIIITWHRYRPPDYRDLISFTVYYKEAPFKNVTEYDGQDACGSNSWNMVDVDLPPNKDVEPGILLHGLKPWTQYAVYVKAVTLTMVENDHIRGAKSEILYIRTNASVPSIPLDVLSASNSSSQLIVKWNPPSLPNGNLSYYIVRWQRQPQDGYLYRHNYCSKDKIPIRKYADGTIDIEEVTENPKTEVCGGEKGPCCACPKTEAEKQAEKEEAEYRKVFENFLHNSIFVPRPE
Insulin-like growth factor 1 receptor, sequence (P08069 741-1367 limits assumed): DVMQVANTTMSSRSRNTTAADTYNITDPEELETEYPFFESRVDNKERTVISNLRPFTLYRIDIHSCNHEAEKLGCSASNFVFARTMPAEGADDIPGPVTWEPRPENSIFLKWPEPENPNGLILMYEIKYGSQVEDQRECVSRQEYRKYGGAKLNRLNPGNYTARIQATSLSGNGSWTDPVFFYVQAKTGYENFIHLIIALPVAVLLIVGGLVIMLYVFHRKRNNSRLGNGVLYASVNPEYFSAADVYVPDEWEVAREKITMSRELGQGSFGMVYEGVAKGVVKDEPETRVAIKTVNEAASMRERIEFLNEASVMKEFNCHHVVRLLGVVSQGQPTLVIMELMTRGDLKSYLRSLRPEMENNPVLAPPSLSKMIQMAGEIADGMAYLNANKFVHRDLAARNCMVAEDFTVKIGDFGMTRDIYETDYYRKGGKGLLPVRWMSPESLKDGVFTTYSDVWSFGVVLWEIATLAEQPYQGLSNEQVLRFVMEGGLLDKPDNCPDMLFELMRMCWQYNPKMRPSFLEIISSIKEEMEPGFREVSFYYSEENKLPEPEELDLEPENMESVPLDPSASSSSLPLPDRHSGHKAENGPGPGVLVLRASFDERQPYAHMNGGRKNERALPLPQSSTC
Dual specificity tyrosine-phosphorylation-regulated kinase 1B, sequence (Q9Y463 whole entry): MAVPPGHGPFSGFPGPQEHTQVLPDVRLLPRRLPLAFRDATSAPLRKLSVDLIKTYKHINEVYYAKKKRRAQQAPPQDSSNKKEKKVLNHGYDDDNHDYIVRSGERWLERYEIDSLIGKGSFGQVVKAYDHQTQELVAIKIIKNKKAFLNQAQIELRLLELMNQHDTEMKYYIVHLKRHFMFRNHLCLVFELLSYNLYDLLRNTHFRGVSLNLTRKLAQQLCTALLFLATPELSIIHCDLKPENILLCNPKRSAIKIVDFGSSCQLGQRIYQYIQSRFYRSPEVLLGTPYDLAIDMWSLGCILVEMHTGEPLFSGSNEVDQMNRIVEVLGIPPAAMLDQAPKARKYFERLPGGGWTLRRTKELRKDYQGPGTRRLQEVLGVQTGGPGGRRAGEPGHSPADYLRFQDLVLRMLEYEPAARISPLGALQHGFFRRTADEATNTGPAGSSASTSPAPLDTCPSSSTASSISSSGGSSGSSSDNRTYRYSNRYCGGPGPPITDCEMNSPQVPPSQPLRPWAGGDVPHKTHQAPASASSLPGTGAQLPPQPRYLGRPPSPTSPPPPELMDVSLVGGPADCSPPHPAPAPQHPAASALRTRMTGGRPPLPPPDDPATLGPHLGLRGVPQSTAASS

`Oc1ccc(-c2nc(-c3ccncc3)c(-c3ccc(F)cc3)[nH]2)cc1` [SB-202190]: the Ki in [1] was 1260 nM (active); on Aurora kinase A, > 1580 nM (inactive); in [2], > 3980 nM (inactive); in assay [3], > 6310 nM (inactive); in [4], > 1580 nM (inactive); in assay [5] it was > 2510 nM (inactive). For the same compound, the Ki is > 5010 nM (inactive) in [6]; > 2000 nM (inactive) in [7]; > 3980 nM (inactive) at Activated CDC42 kinase 1; 1000 nM (active) in [8]; 501 nM (active) in assay [9].

For the compound `CCCCC(=O)Nc1cc(-c2c[nH]c3ncccc23)cc(Cl)n1`, the Ki in [1] was > 2510 nM (inactive); at Aurora kinase A it was > 1580 nM (inactive); in [2] it was > 31.6 nM (inactive); in assay [3] it was > 6310 nM (inactive); in [4] it was > 2510 nM (inactive); in assay [5], 39.8 nM (active). Further, the Ki in assay [6] was > 5010 nM (inactive); in assay [7] it was 39.8 nM (active); at Activated CDC42 kinase 1, > 3980 nM (inactive); in [8], 316 nM (active); in [9], > 5010 nM (inactive).

As to `COc1cccc(C(C)NC(=O)c2sc(-c3ccncc3)nc2C)c1` (stereo not drawn), the Ki in assay [1] was > 2510 nM (inactive); on Aurora kinase A, > 1580 nM (inactive); in assay [2], 31.6 nM (active); in assay [3], > 6310 nM (inactive); in [4], > 2510 nM (inactive); in assay [5] it was > 2510 nM (inactive). Further, the Ki in [6] is > 5010 nM (inactive); in assay [7] it was > 2000 nM (inactive); at Activated CDC42 kinase 1, > 3980 nM (inactive); in assay [8] it was > 1260 nM (inactive); in [9], > 5010 nM (inactive).

Broadly, the Ki is a dissociation constant, usually derived from enzyme kinetics or from competition with a known ligand.
